Tests used:
[1] = tested on: PyMT syngeneic breast cancer implant mouse model; test: PyMT syngeneic breast cancer model lung metastasis evaluation, Compound 1 dosed intermittently with eribulin; type: in vivo; conditions: Compound 1 oral twice weekly, eribulin IV three times weekly, 12 days
Protocol: (§1) PyMT Syngeneic Breast Cancer Model Lung Metastasis Evaluation
(§2) Briefly, 1×10^6 cells (dissociated from PyMT tumor fragments and stored frozen in cell-freezing medium) in 0.1 mL total volume were implanted into the fourth mammary fat pad on the left side of female mice (FVB/NJ, JAXWEST:RB05 mice from Jackson Labs). A total of three mice were implanted in each group. Molecular Imaging, Inc.'s Animal Care and Use Committee approved all the experimental protocols and conducted experiments in compliance with all the laws, regulations and guidelines of the National Institutes of Health (NIH). […] Animals were dosed for 12 days. Body weights and tumor measurements were recorded three times weekly.
(§3) At the end of study, lung tissues were excised and placed in formalin. Formalin-fixed lung samples were then placed in paraffin blocks. Each lung block had three slides with two levels per slide cut and stained with Hematoxylin and Eosin. Metastatic lung nodules were counted via microscopy.

[2] = tested on: PyMT syngeneic breast cancer implant mouse model; test: PyMT syngeneic breast cancer model survival evaluation; type: in vivo; conditions: Compound 1 oral once or twice weekly, eribulin at 0.1 mg/kg IV three times weekly; tumors resected three days after treatment began
Protocol: PyMT Syngeneic Breast Cancer Model Survival Evaluation
Briefly, 1×10^6 cells (dissociated from PyMT tumor fragments and stored frozen in cell-freezing medium) in 0.1 mL total volume were implanted into the fourth mammary fat pad on the left side of female mice (FVB/NJ, JAXWEST:RB05 mice from Jackson Labs). A total of ten mice were implanted in each group. Molecular Imaging, Inc.'s Animal Care and Use Committee approved all the experimental protocols and conducted experiments in compliance with all the laws, regulations and guidelines of the National Institutes of Health (NIH). […] Tumors were then resected three days after treatment began. Animals were then dosed for the duration of the survival experiment. Body weights and tumor measurements were recorded three times weekly.

[3] = tested on: PyMT syngeneic breast cancer implant mouse model; test: PyMT syngeneic breast cancer model primary tumor growth; type: in vivo; conditions: Compound 1 oral twice daily, paclitaxel IV every five days, 21 days
Protocol: PyMT Syngeneic Breast Cancer Model Primary Tumor Growth
as §2, with “tumor fragments)” for “tumor fragments and stored frozen in cell-freezing medium)”, “of 10” for “of three”, “for 21” for “for 12”, “weekly. Tumor burden (mg) was estimated from caliper measurements by the formula for the volume of a prolate ellipsoid assuming unit density as: Tumor burden (mg)=(L×W^2)/2, where L and W are the respective orthogonal tumor length and width measurements (mm).” for “weekly.”

[4] = tested on: PyMT syngeneic breast cancer implant mouse model; test: PyMT syngeneic breast cancer model primary tumor TIE2 cell accumulation (TIE2 staining); type: in vivo; conditions: Compound 1 oral twice daily, paclitaxel IV every five days, 21 days
Protocol: (§4) Briefly, 1×10^6 cells (dissociated from PyMT tumor fragments) in 0.1 mL total volume were implanted into the fourth mammary fat pad on the left side of female mice (FVB/NJ, JAXWEST:RB05 mice from Jackson Labs). A total of 10 mice were implanted in each group. […] Animals were dosed for 21 days. Body weights and tumor measurements were recorded three times weekly.
At the end of study, tumors were excised and placed in formalin. Formalin-fixed tumor samples were then placed in paraffin blocks. The experimental formalin fixed-paraffin embedded tissue slides were deparaffinized with xylene and hydrated to distilled water through a graduated series of alcohol rinses. Antigenic retrieval was performed using Dako's PT Link Module with a Citrate pH 6 buffer target retrieval solution at 95° C. for 20 minutes. Once the slides cooled down, they were loaded onto a Dako AutostainerPlusLink for immunohistochemical staining at room temperature with both TIE2 and CD31 antibodies. Endogenous peroxidase and alkaline phosphatase activity in the tissues was quenched with a Dual Endogenous Enzyme Block solution (Dako, S2003) for 5 minutes. Non-specific protein binding was blocked with serum free Protein Block (Dako, X0909) for 5 minutes. […] Slides were scored for TIE2 staining using a scale of 0, no visible staining; 1, weak staining; 2, moderate staining; 3 strong staining.

[5] = tested on: PyMT syngeneic breast cancer implant mouse model; test: PyMT syngeneic breast cancer model primary tumor macrophage accumulation (F4/80 staining); type: in vivo; conditions: Compound 1 oral twice daily, paclitaxel IV every five days, 21 days
Protocol: PyMT Syngeneic Breast Cancer Model Primary Tumor Macrophage Accumulation
as §4
At the end of study, tumors were excised and placed in formalin. Formalin-fixed tumor samples were then placed in paraffin blocks. Formalin fixed-paraffin embedded tissue slides were deparaffinized with xylene and hydrated to distilled water through a graduated series of alcohol rinses. Antigenic retrieval was performed using Dako's PT Link Module with a Tris/EDTA buffer target retrieval solution at 95° C. for 20 minutes. Once the slides cooled down, they were loaded onto a Dako AutostainerPlusLink for immunohistochemical staining at room temperature with F4/80 and CD31 antibodies, to stain for macrophages and endothelial cells, respectively. Endogenous peroxidase and alkaline phosphatase activity in the tissues was quenched with a Dual Endogenous Enzyme Block solution (Dako, S2003) for 5 minutes. […] Slides were scored for F4/80 staining using a scale of 0, no visible staining; 1, weak staining; 2, moderate staining; 3 strong staining.

[6] = tested on: PyMT syngeneic breast cancer implant mouse model; test: PyMT syngeneic breast cancer model lung metastasis evaluation, Compound 1 dosed intermittently with paclitaxel; type: in vivo; conditions: Compound 1 oral twice weekly, paclitaxel IV every five days, 12 days
Protocol: as §1, §2, §3

[7] = tested on: HMVEC capillary tube formation; test: HMVEC capillary tube formation assay; type: cell-based; conditions: Homo sapiens, ANG1-stimulated, 18 hours, read-out: IC50 value for inhibition of ANG1-stimulated HMVEC capillary tube formation
Protocol: HMVEC (Human microvascular endothelial cells; Catalog #PCS-110-010) cells were obtained from the American Type Culture Collection (ATCC, Manassas, Va.). Briefly, cells were grown in EGM-2 MV (Lonza, Walkersville, Md.) at 37 degrees Celsius, 5% CO2, and 95% humidity. Cells were allowed to expand until reaching 90-95% saturation at which point they were subcultured or harvested for assay use.
HMVEC Capillary Tube Formation Assay
HMVEC cells (1.5×10^4 cells/well) mixed with test composition or DMSO control and the appropriate growth factor (ANG1 or ANG2) or control were added to a 96-well tissue-culture treated plate coated with growth-factor reduced Matrigel in 0.1 mL of EBM-2 basal medium (Lonza, Walkersville, Md.). Cells were then incubated for 18 hours at 37 degrees Celsius, 5% CO2, and 95% humidity. Media was then gently aspirated and wells were gently washed with 0.1 mL EBM-2 basal medium. Media was again aspirated and 1 μM Calcein AM solution (Invitrogen, Carlsbad, Calif.) in basal medium was added to each well to fluorescently label live cells. Cells were then incubated for 30 minutes at 37 degrees Celsius, 5% CO2, and 95% humidity. Media was aspirated and wells were gently washed with phosphate-buffered saline twice. […] Data was analyzed using Prism software (GraphPad Software, San Diego, Calif.) to calculate IC50 values.

TIE2 = molecular target: T1, TIE2 (Homo sapiens, UniProt Q02763); test: TIE2-transfected CHO K1 phospho-TIE2 Western blot composition washout assay; type: cell-based; conditions: incubated 2 hours at 0.1 μM-1 μM prior to being washed out
T1 construct: V5; expressed in transfected cells; host or cells: CHO-K1 (ATCC CCL-61), transient transfection with Lipofectamine LTX
Protocol: CHO-K1 cells (catalog #CCL-61) were obtained from the American Type Culture Collection (ATCC, Manassas, Va.). Briefly, cells were grown in F12K medium supplemented with 10% characterized fetal bovine serum (Invitrogen, Carlsbad, Calif.), 100 units/mL penicillin G, 100 μg/ml streptomycin, and 0.29 mg/mL L-glutamine (Invitrogen, Carlsbad, Calif.) at 37 degrees Celsius, 5% CO2, and 95% humidity. Cells were allowed to expand until reaching 70-95% confluence at which point they were subcultured or harvested for assay use.
TIE2-Transfected CHO K1 Phospho-TIE2 Western Blot Composition Washout Assay
CHO K1 cells (1×10^5 cells/well) were added to a 24-well tissue-culture treated plate in 1 mL of RPMI1640 medium supplemented with 10% characterized fetal bovine serum and 1× non-essential amino acids (Invitrogen, Carlsbad, Calif.). Cells were then incubated overnight at 37 degrees Celsius, 5% CO2, and 95% humidity. Medium was aspirated, and 0.5 mL of medium was added to each well. […] Fluorescence was detected using a Storm 840 phosphorimager (GE Healthcare, Piscataway, N.J.) in fluorescence mode. […] The 160 kDa phospho-TIE2 and total TIE2 bands were quantified using ImageQuant software (GE Healthcare, Piscataway, N.J.). […]

T1 sequence (Q02763 23-1124): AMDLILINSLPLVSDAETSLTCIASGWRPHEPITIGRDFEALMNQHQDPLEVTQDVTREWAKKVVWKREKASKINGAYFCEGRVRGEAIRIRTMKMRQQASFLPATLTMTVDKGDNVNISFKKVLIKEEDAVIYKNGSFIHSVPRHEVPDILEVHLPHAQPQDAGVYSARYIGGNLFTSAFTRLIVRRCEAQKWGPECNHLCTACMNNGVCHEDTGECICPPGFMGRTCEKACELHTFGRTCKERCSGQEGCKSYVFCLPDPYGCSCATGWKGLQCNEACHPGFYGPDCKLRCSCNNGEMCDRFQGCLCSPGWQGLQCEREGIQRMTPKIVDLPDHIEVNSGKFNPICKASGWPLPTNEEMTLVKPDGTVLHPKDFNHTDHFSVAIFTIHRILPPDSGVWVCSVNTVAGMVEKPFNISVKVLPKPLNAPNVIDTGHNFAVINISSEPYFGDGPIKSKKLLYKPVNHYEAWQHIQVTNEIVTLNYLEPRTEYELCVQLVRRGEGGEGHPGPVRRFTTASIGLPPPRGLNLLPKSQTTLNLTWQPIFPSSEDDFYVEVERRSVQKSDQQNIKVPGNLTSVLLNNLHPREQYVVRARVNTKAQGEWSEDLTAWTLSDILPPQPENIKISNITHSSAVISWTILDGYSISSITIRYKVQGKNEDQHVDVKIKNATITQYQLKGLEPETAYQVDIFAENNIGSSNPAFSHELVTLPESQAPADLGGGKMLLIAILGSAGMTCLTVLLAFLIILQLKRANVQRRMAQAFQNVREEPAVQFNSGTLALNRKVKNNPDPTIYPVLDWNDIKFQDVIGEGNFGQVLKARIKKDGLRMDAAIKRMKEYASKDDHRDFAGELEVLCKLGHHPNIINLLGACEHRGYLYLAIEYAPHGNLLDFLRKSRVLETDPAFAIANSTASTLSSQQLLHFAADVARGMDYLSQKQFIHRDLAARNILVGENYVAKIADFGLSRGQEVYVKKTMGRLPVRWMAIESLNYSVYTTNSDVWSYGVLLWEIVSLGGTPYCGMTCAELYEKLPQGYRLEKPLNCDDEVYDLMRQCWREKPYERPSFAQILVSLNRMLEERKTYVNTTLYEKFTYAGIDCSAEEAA

| IC50 [7] | duration of >50% inhibition of phospho-TIE2 levels after washout (TIE2) | inhibition of phospho-TIE2 levels after washout (TIE2; maintained for >24 hours) | SMILES | lung metastasis (metastatic lung nodules), FIG. 6 [1] | survival, FIG. 7 [2] | primary tumor growth (tumor burden), FIG. 1 [3] | TIE2-expressing cell accumulation at the primary tumor (TIE2 staining), FIG. 3 [4] | macrophage accumulation at the primary tumor (F4/80 staining), FIG. 2 [5] | lung metastasis (metastatic lung nodules), FIG. 5 [6] |
| --- | --- | --- | --- | --- | --- | --- | --- | --- | --- |
|  |  |  | C=C1C[C@@H]2CC[C@@]34C[C@H]5O[C@H]6[C@@H](O3)[C@H]3O[C@H](CC[C@@H]3O[C@H]6[C@H]5O4)CC(=O)C[C@@H]3[C@@H](OC)[C@@H](C[C@H](O)CN)O[C@H]3C[C@H]3O[C@@H](CC[C@@H]1O2)C[C@@H](C)C3=C [eribulin] | decrease (or increase at low dose) in lung metastasis | no increase in survival |  |  |  |  |
|  |  |  | CC(=O)O[C@H]1C(=O)[C@@]2(C)[C@H]([C@H](OC(=O)c3ccccc3)[C@]3(O)C[C@H](OC(=O)[C@H](O)[C@@H](NC(=O)c4ccccc4)c4ccccc4)C(C)=C1C3(C)C)[C@]1(OC(C)=O)CO[C@@H]1C[C@@H]2O [paclitaxel, reference compound] |  |  | tumor growth inhibition | did not decrease TIE2-expressing cell accumulation | did not decrease macrophage accumulation | decrease in lung metastasis |
| 6.9 nM | > 24 h | > 50% | CNC(=O)c1cc(Oc2ccc(NC(=O)Nc3cc(C(C)(C)C)nn3-c3ccc4ncccc4c3)c(F)c2)ccn1.Cc1ccc(S(=O)(=O)O)cc1 [Compound 1, 1-(3-tert-butyl-1-(quinolin-6-yl)-1H-pyrazol-5-yl)-3-(2-fluoro-4-(2-(methylcarbamoyl)pyridin-4-yloxy)phenyl)urea para-toluene sulfonic acid salt] |  |  | tumor growth inhibition | decrease in TIE2-expressing cell accumulation | decrease in macrophage accumulation |  |
